Experimental data as given in PMC9866940 (Viruses, 2022).
Where a name gives a salt, the structure may show the parent alone. Read-outs that look alike come from different tables or passages of the source.

Tests used:
in vitro [1] = settings: human
LASV MG = assay: microbe, parasite or virus in culture; assay type: cell-based, Lassa virus (LASV); settings: for inhibition of LASV MG activity (rescreening): 5 µM; for inhibition at 5 µM: Huh-7, read-out: inhibition of LASV MG activity (rescreening)
JUNV MG = assay: microbe, parasite or virus in culture; assay type: cell-based, Junin virus (JUNV)
LCMV (rLCMV.Arm) = assay: microbe, parasite or virus in culture; assay type: cell-based, lymphocytic choriomeningitis virus (LCMV)
JUNV (Candid #1 strain) = assay: microbe, parasite or virus in culture; assay type: cell-based, Junin virus (JUNV)
Huh-7 cells = settings: 5 µM
A549 cells [2] = test system: A549 cells
A549 cells [3] = test system: A549 cells; remark: listed apart in the source
in vitro [4] = settings: human; remark: listed apart in the source
in vitro [5] = settings: human; remark: listed apart in the source
in vitro [6] = settings: human; remark: listed apart in the source
LCMV MG = assay type: cell-based, lymphocytic choriomeningitis virus (LCMV); settings: 5 µM
[7] = Mammarenavirus lassaense, Huh-7
[8] = Mammarenavirus juninense, Huh-7
[9] = Mammarenavirus choriomeningitidis, A549, 24 h
[10] = Mammarenavirus juninense, A549, 48 h

SMILES | CC50 (in vitro [1]) [nM] | IC50 (LASV MG; [7]) [nM] | IC50 (JUNV MG; [8]) [nM] | IC50 (LCMV (rLCMV.Arm); [9]) [nM] | IC50 (JUNV (Candid #1 strain); [10]) [nM] | IC50 (LASV MG; read-out: IC50) [nM] | IC50 (JUNV MG; read-out: IC50) [nM] | IC50 (LCMV (rLCMV.Arm); read-out: IC50) [nM] | CC50 (A549 cells [2]) [nM] | IC50 (JUNV (Candid #1 strain); read-out: IC50) [nM] | CC50 (A549 cells [3]) [nM] | further results
CC(=O)[C@]1(O)Cc2c(O)c3c(c(O)c2[C@@H](O[C@H]2C[C@H](N)[C@H](O)[C@H](C)O2)C1)C(=O)c1ccccc1C3=O [idarubicin hydrochloride] | 790 | 60 | 120 | 590 | 2560 | – | – | – | – | – | – | –
NCCNc1ccc(NCCN)c2c1C(=O)c1ccncc1C2=O.O=C(O)/C=C\C(=O)O.O=C(O)/C=C\C(=O)O [pixantrone maleate] | – | – | – | – | – | 1010 | 1810 | 4750 | ≥ 40000 | 3660 | 30300 | inhibition of LASV MG activity (rescreening) (LASV MG): at least 90%; cell viability (rescreening) (Huh-7 cells): > 70%
CN(C)CCN1C(=O)c2cccc3cc(N)cc(c23)C1=O [amonafide] | ≥ 40000 | 2890 | 2900 | 10000 | 5750 | – | – | – | – | – | – | –
NC(=O)c1ncn([C@@H]2O[C@H](CO)[C@@H](O)[C@H]2O)n1 [ribavirin, Ribavirin] | ≥ 100000 | 15400 | 38200 | 20200 | 45400 | – | – | – | – | – | – | CC50 (in vitro [4]): ≥ 200000 nM; CC50 (in vitro [5]; CC50): ≥ 200000 nM; CC50 (in vitro [6]): ≥ 200000 nM
Nc1ccc2cc3ccc(N)cc3nc2c1 [proflavine] | – | 1040 | 1360 | – | 2450 | – | – | – | – | – | – | inhibition at 5 µM (LASV MG; Mammarenavirus lassaense): ≥ 90%; viability at 5 µM (in vitro [5]): > 70%
Cc1c2ccncc2c(C)c2c1[nH]c1ccccc12.Cl [ellipticine hydrochloride] | – | – | – | – | – | 760 | 760 | 1500 | ≥ 20000 | 1730 | 32500 | inhibition of LCMV MG activity (LCMV MG): 95%
COc1c(C)c2c(c(O)c1C/C=C(\C)CCC(=O)O)C(=O)OC2 [MPA, mycophenolic acid] | – | 370 | 420 | – | 970 | – | – | – | – | – | – | –
CCN(CC)CCCC(C)Nc1c2ccc(Cl)cc2nc2ccc(OC)cc12 (stereo not shown) [quinacrine dihydrochloride] | – | 1670 | 1510 | – | 7330 | – | – | – | – | – | – | inhibition at 5 µM (LASV MG; Mammarenavirus lassaense): ≥ 90%; viability at 5 µM (in vitro [5]): > 70%
CCN(CC)CCCC(C)Nc1c2ccc(Cl)cc2nc2ccc(OC)cc12 (stereo not shown) [QDD, quinacrine dihydrochloride dihydrate] | – | – | – | – | – | – | – | – | – | – | – | IC50 (LASV MG): 1280 nM; inhibition of LASV MG activity (rescreening) (LASV MG): at least 90%; IC50 (JUNV MG): 1460 nM; cell viability (rescreening) (Huh-7 cells; human): > 70%; IC50 (JUNV (Candid #1 strain)): 4660 nM; CC50 (A549 cells [3]; human): 28000 nM
CN[C@H]1CN(c2ccc3c(=O)c(C(=O)O)cn(-c4nccs4)c3n2)C[C@@H]1OC [voreloxin (SNS 595) hydrochloride] | – | – | – | – | – | 1820 | 1150 | 8500 | ≥ 40000 | 5230 | 13300 | –
